Consider 24 compounds from patent US12091425B2 (AMGEN INC., priority 2016, dated 2024).

Usually IC50 stands for the concentration that gives 50% inhibition.

For one experiment, the target named is T1, Mcl-1/Bim interaction, recombinant human Mcl-1 (171-327) (Homo sapiens, UniProt Q07820).
T1 construct: made in house
T1 sequence (Q07820 171-327): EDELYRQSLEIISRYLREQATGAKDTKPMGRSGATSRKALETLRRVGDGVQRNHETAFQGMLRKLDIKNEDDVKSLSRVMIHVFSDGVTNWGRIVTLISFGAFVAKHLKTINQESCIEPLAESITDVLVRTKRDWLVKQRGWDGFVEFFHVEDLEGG
In words: Cell free Mcl-1: Bim Affinity Assay (Mcl-1 HTRF). The note with it: TR-FRET, 0.1 nM Mcl-1 (171-327), 0.05 nM biotin-Bim (51-76). Format: binding. On the procedure: Cell free Mcl-1: Bim Affinity Assay (Mcl-1 HTRF)
The inhibition of the Mcl-1/Bim interaction was measured using a time-resolved fluorescence resonance energy transfer (TR-FRET) assay. […] A biotinylated peptide derived from human Bim (residues 51-76) was purchased from CPC Scientific (San Jose, CA). The TR-FRET assay was conducted in a 384-well white OptiPlatem (PerkinElmer, Waltham, MA) in a total volume of 40 μL. […] The reaction plates were further incubated overnight and then were read on an Envision® multimode reader (PerkinElmer). […] The IC50 values of test compounds were determined from duplicate data by analyzing competition curves using a four-parameter sigmoidal model in GraphPad Prism (GraphPad Software, San Diego, CA) or in Genedata Screener® (Genedata, Basel, Switzerland).
Background: Time-resolved FRET reads energy transfer from a long-lived donor to a nearby acceptor.
Regarding `O=C1NS(=O)(=O)C[C@@H](CO)C/C=C/[C@@H](O)[C@@H]2CC[C@H]2CN2C[C@@]3(CCCc4cc(Cl)ccc43)COc3ccc1cc32` (single isomer, unassigned) [Example 1089], the IC50 stood at 0.874 nM.

`CCN1CC/C=C/[C@H](OCC(=O)O)[C@@H]2CC[C@H]2CN2C[C@@]3(CCCc4cc(Cl)ccc43)COc3ccc(cc32)C(=O)NS1(=O)=O` [Example 44, (((1S,3′R,6′R,7′S,8′E)-6-chloro-12′-ethyl-13′,13′-dioxido-15′-oxo-3,4-dihydro-2H-spiro[naphthalene-1,22′-[20]oxa[13]thia[1,12,14]triazatetracyclo[14.7.2.0^3,6.0^19,24]pentacosa[8,16,18,24]tetraen]-7′-yl)oxy)acetic Acid]: the concentration for half-maximal inhibition (IC50) was determined as 0.115 nM.

As for `C[C@@H]1[C@H](C)/C=C/[C@H](O)[C@@H]2CC[C@H]2CN2C[C@@]3(CCCc4cc(Cl)ccc43)COc3ccc(cc32)C(=O)NS(=O)(=O)[C@H]1C` (single isomer, unassigned) [Example 1044], the half-inhibitory concentration (IC50) was found to be 35.8 nM.

On to `COC[C@@H]1CC/C=C/[C@H](OC)[C@@H]2CC[C@H]2CN2C[C@@]3(CCCc4cc(Cl)ccc43)COc3ccc(cc32)C(=O)NS1(=O)=O` [Example 444, (1S,3′R,6′R,7′S,8′E,12′S)-6-chloro-7′-methoxy-12′-(methoxymethyl)-3,4-dihydro-2H,15′H-spiro[naphthalene-1,22′-[20]oxa[13]thia[1,14]diazatetracyclo[14.7.2.0^3,6.0^19,24]pentacosa [8,16,18,24]tetraen]-15′-one 13′,13′-dioxide], for which the IC50 amounted to 0.785 nM.

With `CC[C@@H]1CCCC[C@H](OCC(=O)O)[C@@H]2CC[C@H]2CN2C[C@@]3(CCCc4cc(Cl)ccc43)COc3ccc(cc32)C(=O)NS1(=O)=O` [Example 994, (((1S,3′R,6′R,7′S,12′R)-6-chloro-12′-ethyl-13′,13′-dioxido-15′-oxo-3,4-dihydro-2H-spiro[naphthalene-1,22′-[20]oxa[13]thia[1,14]diazatetracyclo[14.7.2.0^3,6.0^19,24]pentacosa [16,18,24]trien]-7′-yl)oxy)acetic Acid], the half-inhibitory concentration (IC50) was determined as 0.221 nM.

As to `CC[C@@H]1CC/C=C/[C@H](OCC(=O)N2CCC(F)(F)CC2)[C@@H]2CC[C@H]2CN2C[C@@]3(CCCc4cc(Cl)ccc43)COc3ccc(cc32)C(=O)NS1(=O)=O` [Example 998, (1S,3′R,6′R,7′S,8′E,12′R)-6-chloro-7′-(2-(4,4-difluoro-1-piperidinyl)-2-oxoethoxy)-12′-ethyl-3,4-dihydro-2H,15′H-spiro[naphthalene-1,22′-[20]oxa[13]thia[1,14]diazatetracyclo[14.7.2.0^3,6.0^19,24]pentacosa [8,16,18,24]tetraen]-15′-one 13′,13′-dioxide], the IC50 worked out at 2.14 nM.

Consider `O=C1NS(=O)(=O)CCCCCC[C@@H]2CC[C@H]2CN2C[C@@]3(CCCc4cc(Cl)ccc43)COc3ccc1cc32` [Example 1084, (1S,3′R,6′R)-6-chloro-3,4-dihydro-2H,15′H-spiro[naphthalene-1,22′-[20]oxa[13]thia[1,14]diazatetracyclo[14.7.2.0^3,6.0^19,24]pentacosa[16,18,24]trien]-15′-one 13′,13′-dioxide], for which the 50% inhibitory concentration (IC50) worked out at 13.6 nM.

In the case of `O=C1NS(=O)(=O)C2CCCC(CCC(O)C3CCC3CN3CC4(CCCc5cc(Cl)ccc54)COc4ccc1cc43)C2` (single isomer, unassigned) [Example 106], the IC50 is 16.9 nM.

For `C/C=C/C1CC(=O)[C@@H]2CC[C@H]2CN2C[C@@]3(CCCc4cc(Cl)ccc43)COc3ccc(cc32)C(=O)NS(=O)(=O)[C@H](C)[C@@H](C)C1` (stereo in doubt) [Example 350, (1S,3′R,6′R,9′R,11′S,12′R)-6-chloro-11′,12′-dimethyl-9′-((1E)-1-propen-1-yl)-3,4-dihydro-2H,7′H,15′H-spiro[naphthalene-1,22′-[20]oxa[13]thia[1,14]diazatetracyclo[14.7.2.0^3,6.0^19,24]pentacosa [16,18,24]triene]-7′,15′-dione 13′,13′-dioxide], the IC50 turned out to be 3.73 nM.

The experiment is the same for the next values; noted with them: cell free Mcl-1:Bim TR-FRET, recombinant human Mcl-1 (171-327).
For “(1S,3′R,6′S,14′S,15′R)-6-chloro-3,4-dihydro-2H,9′H,17′H-spiro[naphthalene-1,24′-[22]oxa[15]thia[1,10,16]triazapentacyclo[16.7.2.1^10,14.0^3,6.0^21,26]octacosa[18,20,26]triene]-9′,17′-dione 15′-oxide or (1S,3′R,6′S,14′S,15′S)-6-chloro-3,4-dihydro-2H,9′H,17′H-spiro[naphthalene-1,24′-[22]oxa[15]thia[1,10,16]triazapentacyclo[16.7.2.1^10,14.0^3,6.0^21,26]octacosa[18,20,26]triene]-9′,17′-dione 15′-oxide [Example 948]”, the IC50 is 10.3 nM.

Regarding `O=C1NS(=O)(=O)CCCC[C@@H](O)[C@H](O)[C@@H]2CC[C@H]2CN2C[C@@]3(CCCc4cc(Cl)ccc43)COc3ccc1cc32` (single isomer, unassigned) [Example 853, (1S,3′R,6′R,7′R,8′R)-6-chloro-7′,8′-dihydroxy-3,4-dihydro-2H,15′H-spiro[naphthalene-1,22′-[20]oxa[13]thia[1,14]diazatetracyclo[14.7.2.0^3,6.0^19,24]pentacosa [16,18,24]trien]-15′-one 13′,13′-dioxide or (1S,3′R,6′R,7′S,8′S)-6-chloro-7′,8′-dihydroxy-3,4-dihydro-2H,15′H-spiro[naphthalene-1,22′-[20]oxa[13]thia[1,14]diazatetracyclo[14.7.2.0^3,6.0^19,24]pentacosa [16,18,24]trien]-15′-one 13′,13′-dioxide], the IC50 came out at 11.7 nM.

As to `O=C1NS(=O)(=O)CCC[C@]2(O)CCO[C@H](C2)[C@@H]2CC[C@H]2CN2C[C@@]3(CCCc4cc(Cl)ccc43)COc3ccc1cc32` (single isomer, unassigned) [Example 924], the IC50 worked out at 5.07 nM.

Take `C[C@@H]1CCC2=NO[C@H](C2)[C@@H]2CC[C@H]2CN2C[C@@]3(CCCc4cc(Cl)ccc43)COc3ccc(cc32)C(=O)NS1(=O)=O` (single isomer, unassigned) [Example 609]: the IC50 came to 3.84 nM.

On to `O=C1NS(=O)(=O)C/C=C/[C@@H](O)CC[C@@H]2CC[C@H]2CN2C[C@@]3(CCCc4cc(Cl)ccc43)COc3ccc1cc32` (single isomer, unassigned) [Example 501], for which the IC50 came to 1.49 nM.

Regarding `C[C@@H]1[C@@H](O)C/C=C/C[C@@H]2CC[C@H]2CN2C[C@@]3(CCCc4cc(Cl)ccc43)COc3ccc(cc32)C(=O)NS1(=O)=O` (single isomer, unassigned) [Example 504], the half-maximal inhibitory concentration (IC50) amounted to 2.55 nM.

As for `COc1cccc(NC(=O)C[C@@H]2CC/C=C/[C@H](O)[C@@H]3CC[C@H]3CN3C[C@@]4(CCCc5cc(Cl)ccc54)COc4ccc(cc43)C(=O)NS2(=O)=O)c1` (single isomer, unassigned) [Example 628], the IC50 stood at 3.9 nM.

On to `COC[C@@H]1C/C=C/[C@H](O)[C@@H]2CC[C@H]2CN2C[C@@]3(CCCc4cc(Cl)ccc43)COc3ccc(cc32)C(=O)NS1(=O)=O` (single isomer, unassigned) [Example 773], for which the 50% inhibitory concentration (IC50) came to 2.35 nM.

Regarding `O=C1NS(=O)(=O)C/C=C/[C@H](O)CC[C@@H]2CC[C@H]2CN2C[C@@]3(CCCc4cc(Cl)ccc43)COc3ccc1cc32` (single isomer, unassigned) [Example 500], the 50% inhibitory concentration (IC50) stood at 7.08 nM.

As for `O=C1NS(=O)(=O)CC/C=C\[C@@H](O)C[C@@H]2CC[C@H]2CN2C[C@@]3(CCCc4cc(Cl)ccc43)COc3ccc1cc32` (single isomer, unassigned) [Example 883, (1S,3′R,6′S,8′S,9′Z)-6-chloro-8′-hydroxy-3,4-dihydro-2H,15′H-spiro[naphthalene-1,22′[20]oxa[13]thia[1,14]diazatetracyclo[14.7.2.0^3,6.0^19,24]pentacosa[9,16,18,24]tetraen]-15′-one 13′,13′-dioxide or (1S,3′R,6′S,8′R,9′Z)-6-chloro-8′-hydroxy-3,4-dihydro-2H,15′H-spiro[naphthalene-1,22′-[20]oxa[13]thia[1,14]diazatetracyclo[14.7.2.0^3,6.0^19,24]pentacosa [9,16,18,24]tetraen]-15′-one 13′,13′-dioxide], the IC50 was found to be 48.5 nM.

For `O=C1NS(=O)(=O)C/C=C/CC[C@H](O)[C@@H]2CC[C@H]2CN2C[C@@]3(CCCc4cc(Cl)ccc43)COc3ccc1cc32` [Example 808, (1S,3′R,6′R,7′S,10′E)-6-chloro-7′-hydroxy-3,4-dihydro-2H,15′H-spiro[naphthalene-1,22′-[20]oxa[13]thia[1,14]diazatetracyclo[14.7.2.0^3,6.0^19,24]pentacosa [10,16,18,24]tetraen]-15′-one 13′,13′-dioxide], the IC50 turned out to be 1.54 nM.

As to `O=C1NS(=O)(=O)CCCC2(O)CCOC(C2)C2CCC2CN2CC3(CCCc4cc(Cl)ccc43)COc3ccc1cc32` (single isomer, unassigned) [Example 910], the IC50 turned out to be 5.8 nM.

With `C[C@H]1CCCC(=O)[C@@H]2CC[C@H]2CN2C[C@@]3(CCCc4cc(Cl)ccc43)COc3ccc(cc32)C(=O)NS1(=O)=O` (single isomer, unassigned) [Example 760], the IC50 was 15.8 nM.

For `O=C1NS(=O)(=O)[C@H](CO)CCCC[C@H](O)[C@@H]2CC[C@H]2CN2C[C@@]3(CCCc4cc(Cl)ccc43)COc3ccc1cc32` (single isomer, unassigned) [Example 712], the IC50 is 0.995 nM.

As for `CCC1CCCC(O)C2CCC2CN2CC3(CCCc4cc(Cl)ccc43)COc3ccc(cc32)C(=O)NS1(=O)=O` (single isomer, unassigned) [Example 768], the IC50 turned out to be 2.24 nM.
